This assay deals with 3T3-L1 cells. Nature of the assay: Lipid decomposition (glycerol secretion) in in vitro obese model of differentiated 3T3-L1 adipocytes. To be noted: 24 hr. In kind it is cell-based. As to the method: As adipocyte precursor cells, 3T3-L1 cells (Dainippon Sumitomo Pharmaceuticals Co., Ltd.) were used. The 3T3-L1 cells were cultured in passage medium A (10% bovine serum-added DMEM supplemented with penicillin[…]streptomycin) in a 75 cm^2 flask. The 3T3-L1 cells were plated in a 24 well plate at 20000 cells/well. The next day, the medium was changed to passage medium B (10% fetal calf serum-added high glucose DMEM supplemented with penicillin-streptomycin) and, 48 hr later, the medium was changed to differentiation induction medium. The differentiation induction medium contained passage medium B as a base medium, and dexamethasone, isobutylmethylxanthine, insulin and pioglitazone at a final concentration of 0.5 μM, 500 μM, 8 μg/ml and 2 μM, respectively. Further, 48 hr later, the medium was changed to a differentiation promoting medium. The differentiation promoting medium contained passage medium B as a base medium, and insulin and pioglitazone at a final concentration of 8 μg/ml and 2 μM, respectively. 48 hr later, the medium was changed to passage medium B. Thereafter, the medium was changed to passage medium B every other day. 7 to 10 days later, differentiation of 3T3-L1 cells into mature adipocyte cells were confirmed with a phase contrast microscope, and the cells were subjected to the following test.
After removing passage medium B by an aspirator, the cells were washed with KRB-HEPES (128 mM NaCl, 10 mM NaH2PO4, 4.7 mM KCl, 1.25 mM CaCl2, 1.25 mM MgCl2, 50 mM HEPES, pH 7.4). The licorice hydrophobic extract (50 mg/ml) of Example 1 and α-lipoic acid (100 mM) as an antioxidant ingredient were each dissolved in DMSO. […] The glycerol concentration was measured using Glycerol Reagent A manufactured by Zen-Bio, and the glycerol amount per protein concentration of the cell was calculated and compared. […]
After removing passage medium B, the cells were washed with KRB-HEPES. […] The glycerol concentration was measured using Glycerol Reagent A manufactured by Zen-Bio, and the glycerol amount per protein concentration of the cell was calculated and compared. […]

As for `C[N+](C)(C)CC(O)CC(=O)[O-]` (stereo not drawn) [carnitine], where the note is “Table 3 (Example 11), carnitine 80 μM”, the glycerol secretion amount came to 43.5 ± 1.9 μM/mg protein. The molecule `O=c1c(-c2ccc(O)cc2)coc2cc(O)cc(O)c12` [genistein] registered a glycerol secretion amount (Table 2 (Example 10), genistein 10 μM) of 111.1 ± 6.3 μM/mg protein. In turn, `O=C(O)CCCCC1CCSS1` (stereo not drawn) [α-lipoic acid] registered a glycerol secretion amount (Table 1 (Example 9), α-lipoic acid 30 μM) of 89.6 ± 4.8 μM/mg protein.

The values above are taken from patent US20080286254A1, “Composition comprising licorice polyphenol” (Kaneka Corporation, priority 2007, published 2008).
